Earlier results on seven molecules are cited in patent US20250152503A1, “IMPLANTABLE DEVICES FOR THE SUSTAINED DELIVERY OF AN OPIOID ANTAGONIST AND METHODS FOR TREATING INFLAMMATORY, NEUROINFLAMMATORY AND METABOLIC DISORDERS” (Delpor, Inc., priority 2022, published 2025).

Data set [1] has as its target Toll-like receptor 4 (TLR4) (Homo sapiens, UniProt O00206+Q9Y6Y9).
For data set [2] the following is noted: 25° C.
For data set [3] the following is noted: oral, typical dose 50 mg/day.

Chain of Toll-like receptor 4 (TLR4) (O00206 24-839, species assumed): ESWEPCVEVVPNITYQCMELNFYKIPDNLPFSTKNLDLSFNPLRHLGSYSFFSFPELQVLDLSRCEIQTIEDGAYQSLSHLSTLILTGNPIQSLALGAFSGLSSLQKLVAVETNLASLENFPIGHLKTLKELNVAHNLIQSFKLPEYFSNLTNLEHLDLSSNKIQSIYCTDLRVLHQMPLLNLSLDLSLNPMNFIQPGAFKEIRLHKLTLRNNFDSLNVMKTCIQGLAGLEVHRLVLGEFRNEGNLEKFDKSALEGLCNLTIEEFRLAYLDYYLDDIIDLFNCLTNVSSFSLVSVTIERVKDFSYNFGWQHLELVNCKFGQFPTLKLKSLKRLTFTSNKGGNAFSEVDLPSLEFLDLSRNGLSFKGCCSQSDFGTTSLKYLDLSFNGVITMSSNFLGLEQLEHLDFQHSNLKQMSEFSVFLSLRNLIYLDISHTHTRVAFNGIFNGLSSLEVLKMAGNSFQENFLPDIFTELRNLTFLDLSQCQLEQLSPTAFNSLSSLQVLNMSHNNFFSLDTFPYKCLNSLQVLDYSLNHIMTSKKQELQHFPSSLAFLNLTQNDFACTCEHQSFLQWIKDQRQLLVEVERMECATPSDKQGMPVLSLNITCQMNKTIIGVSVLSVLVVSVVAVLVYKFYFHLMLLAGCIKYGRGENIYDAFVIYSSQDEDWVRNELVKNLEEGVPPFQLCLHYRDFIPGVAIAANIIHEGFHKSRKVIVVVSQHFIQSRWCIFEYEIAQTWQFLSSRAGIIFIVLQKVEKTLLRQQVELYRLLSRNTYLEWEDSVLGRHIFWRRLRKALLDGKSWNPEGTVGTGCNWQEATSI
Chain of Toll-like receptor 4 (TLR4) (Q9Y6Y9 17-160 limits assumed, species assumed): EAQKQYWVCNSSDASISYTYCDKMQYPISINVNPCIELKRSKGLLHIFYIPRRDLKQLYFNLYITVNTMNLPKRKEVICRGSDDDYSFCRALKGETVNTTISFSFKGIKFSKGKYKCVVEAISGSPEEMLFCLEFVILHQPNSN

Regarding (−)-naloxone, the “antagonism of TLR4 signaling” value in data set [1] was “antagonize TLR4 signaling”.
For `O=C1CC[C@]2(O)[C@@H]3Cc4ccc(O)c5c4[C@]2(CCN3CC2CC2)[C@@H]1O5` [(+)-naltrexone], the “antagonism of TLR4 signaling” value in data set [1] was “antagonize TLR4 signaling”.
With `C=CCN1CC[C@]23c4c5ccc(O)c4O[C@H]2C(=O)CC[C@]3(O)[C@H]1C5` [(+)-naloxone], the “antagonism of TLR4 signaling” value in data set [1] was “antagonize TLR4 signaling”.
As to `C=C1CC[C@@]2(O)[C@H]3Cc4ccc(O)c5c4[C@@]2(CCN3CC2CC2)[C@H]1O5` [nalmefene], in data set [2], the reported aqueous solubility was 140 µg/mL.
For `O=C1CC[C@@]2(O)[C@H]3Cc4ccc(O)c5c4[C@@]2(CCN3CC2CC2)[C@H]1O5` [naltrexone], in data set [2], the reported aqueous solubility was 667 µg/mL. For the same molecule, the average bioavailability in data set [3] is recorded as 5-40%.
On to (−)-nalmefene, for which the “antagonism of TLR4 signaling” value in data set [1] is “antagonize TLR4 signaling”.
As to (−)-naltrexone, the “antagonism of TLR4 signaling” value in data set [1] was “antagonize TLR4 signaling”.
